The subject of data set [1] is A-375. Nature of the data set: Antiproliferative activity against human A-375 cells harboring BRAF V600E mutant assessed as cell growth inhibition preincubated with compound for 1 hrs followed by UV irradiation for 1 min and measured 72 hrs post compound treatment by CellTiter-Glo luminescent assay. As to conditions: A-375, light or radiation study. It counts as functional. On the technique in general: In ATP-based viability assays light output follows the ATP content of the culture.

In a further data set the test system is A549. Kind of data set: Antiproliferative activity against human A549 cells harboring KRas […] mutant assessed as cell growth inhibition preincubated with compound for 1 hrs followed by UV irradiation for 5 mins and measured 72 hrs post compound treatment by CellTiter-Glo luminescent assay. It counts as functional. As to conditions: A549, light or radiation study.

In data set [2] the target is Serine/threonine-protein kinase B-raf (Homo sapiens) (UniProt P15056). Kind of data set: Inhibition of recombinant human BRAF at 1 uM.
Sequence of Serine/threonine-protein kinase B-raf (Homo sapiens) (P15056 whole entry): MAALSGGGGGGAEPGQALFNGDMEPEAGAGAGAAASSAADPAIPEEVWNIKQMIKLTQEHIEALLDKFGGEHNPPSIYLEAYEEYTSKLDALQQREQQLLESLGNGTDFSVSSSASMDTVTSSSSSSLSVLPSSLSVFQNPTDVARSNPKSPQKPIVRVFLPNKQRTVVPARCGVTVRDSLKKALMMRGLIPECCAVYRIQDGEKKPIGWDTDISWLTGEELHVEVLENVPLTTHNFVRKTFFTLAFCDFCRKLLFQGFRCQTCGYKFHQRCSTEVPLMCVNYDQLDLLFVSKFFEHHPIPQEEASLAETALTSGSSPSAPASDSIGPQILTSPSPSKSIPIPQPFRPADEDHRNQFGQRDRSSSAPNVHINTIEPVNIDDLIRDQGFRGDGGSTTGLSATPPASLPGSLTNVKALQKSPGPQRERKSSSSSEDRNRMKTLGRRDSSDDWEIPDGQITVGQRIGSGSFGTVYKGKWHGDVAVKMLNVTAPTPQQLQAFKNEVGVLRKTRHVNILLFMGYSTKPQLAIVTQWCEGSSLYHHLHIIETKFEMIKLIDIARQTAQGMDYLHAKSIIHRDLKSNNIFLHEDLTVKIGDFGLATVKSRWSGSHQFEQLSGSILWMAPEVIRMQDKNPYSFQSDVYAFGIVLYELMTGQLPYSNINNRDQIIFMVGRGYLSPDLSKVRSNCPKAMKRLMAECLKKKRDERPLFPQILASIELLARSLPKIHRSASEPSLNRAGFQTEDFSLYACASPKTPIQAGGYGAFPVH
Data set [3] addresses Dual specificity mitogen-activated protein kinase kinase 2 (Homo sapiens) (UniProt P36507). Nature of the data set: Inhibition of recombinant human MEK2 at 1 uM.
In data set [4] the target is Mitogen-activated protein kinase 3 (Homo sapiens) (UniProt P27361). Kind of data set: Inhibition of recombinant human ERK1 at 1 uM.
Sequence of Mitogen-activated protein kinase 3 (Homo sapiens) (P27361 whole entry): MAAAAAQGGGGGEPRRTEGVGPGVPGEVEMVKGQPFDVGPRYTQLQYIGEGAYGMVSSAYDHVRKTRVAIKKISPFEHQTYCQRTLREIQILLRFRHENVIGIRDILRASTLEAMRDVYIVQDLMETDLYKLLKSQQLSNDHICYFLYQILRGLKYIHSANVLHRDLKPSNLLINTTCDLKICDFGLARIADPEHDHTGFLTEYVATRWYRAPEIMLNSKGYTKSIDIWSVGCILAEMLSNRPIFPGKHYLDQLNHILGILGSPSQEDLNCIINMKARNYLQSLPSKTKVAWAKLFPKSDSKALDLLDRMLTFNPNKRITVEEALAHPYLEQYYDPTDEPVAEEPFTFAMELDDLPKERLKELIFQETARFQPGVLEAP
For data set [5], the target named is Mitogen-activated protein kinase; ERK1/ERK2 (Homo sapiens, UniProt P27361+P28482). Kind of data set: Inhibition of ERK1/2 phosphorylation in human A-375 cells preincubated with compound for 1 hrs followed by 365 nm light irradiation for 5 mins and measured after 1 hrs compound treatment by Western blot analysis. It counts as cell-based. As to conditions: dose 1-100 nM, time 125.0 min. For orientation: Immunoblotting shows a protein as a band on a membrane.
Sequence of Mitogen-activated protein kinase; ERK1/ERK2 (P27361 whole entry, looked up): as the sequence (P27361 whole entry) above
Sequence of Mitogen-activated protein kinase; ERK1/ERK2 (P28482 whole entry, looked up): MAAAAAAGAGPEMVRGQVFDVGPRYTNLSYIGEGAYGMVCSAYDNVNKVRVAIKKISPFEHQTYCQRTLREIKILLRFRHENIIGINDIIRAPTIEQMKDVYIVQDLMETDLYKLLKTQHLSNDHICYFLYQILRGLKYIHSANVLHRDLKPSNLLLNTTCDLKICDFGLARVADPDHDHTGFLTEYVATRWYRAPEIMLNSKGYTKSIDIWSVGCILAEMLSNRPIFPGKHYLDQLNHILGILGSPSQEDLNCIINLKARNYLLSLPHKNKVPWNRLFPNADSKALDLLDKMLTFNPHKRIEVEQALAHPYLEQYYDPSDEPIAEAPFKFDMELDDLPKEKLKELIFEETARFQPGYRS

Data set [6] deals with A-375. Nature of the data set: Inhibition of MEK/ERK/RSK signaling in human A-375 cells at 5 nM in the absence of light irradiation by Western blot analysis. It counts as cell-based.
The nature of data set [7]: Metabolic stability in human liver microsomes assessed as half-life in the presence of NADPH regenerating system. Format: ADME, Microsome. (In general: Liver microsomes are vesicles of endoplasmic reticulum, rich in cytochrome P450 enzymes.)
In the next data set the target is T1, CYP1A2 (Homo sapiens, UniProt P05177).
T1 sequence (P05177 whole entry): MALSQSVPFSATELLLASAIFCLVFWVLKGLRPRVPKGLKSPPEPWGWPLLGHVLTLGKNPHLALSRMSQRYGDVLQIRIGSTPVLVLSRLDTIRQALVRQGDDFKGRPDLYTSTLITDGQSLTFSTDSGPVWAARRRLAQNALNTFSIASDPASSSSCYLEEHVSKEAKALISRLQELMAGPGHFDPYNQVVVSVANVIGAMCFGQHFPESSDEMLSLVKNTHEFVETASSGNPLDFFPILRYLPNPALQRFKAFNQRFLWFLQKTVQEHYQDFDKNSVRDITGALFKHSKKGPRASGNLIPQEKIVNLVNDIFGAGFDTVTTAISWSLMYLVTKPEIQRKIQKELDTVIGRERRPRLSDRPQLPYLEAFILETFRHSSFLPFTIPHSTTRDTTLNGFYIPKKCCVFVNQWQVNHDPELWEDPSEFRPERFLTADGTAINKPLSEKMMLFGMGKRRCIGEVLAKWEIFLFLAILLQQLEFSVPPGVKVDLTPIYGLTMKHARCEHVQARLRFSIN
Kind of data set: Inhibition of CYP1A2 in human microsomes at 10 uM in the presence of NADPH relative to control. Format: ADME, Microsome.

The target of the next data set is CYP2C19 (Homo sapiens, UniProt P33261). Kind of data set: Inhibition of CYP2C19 in human microsomes at 10 uM in the presence of NADPH relative to control. Format: ADME, Microsome.
Sequence of CYP2C19 (P33261 whole entry): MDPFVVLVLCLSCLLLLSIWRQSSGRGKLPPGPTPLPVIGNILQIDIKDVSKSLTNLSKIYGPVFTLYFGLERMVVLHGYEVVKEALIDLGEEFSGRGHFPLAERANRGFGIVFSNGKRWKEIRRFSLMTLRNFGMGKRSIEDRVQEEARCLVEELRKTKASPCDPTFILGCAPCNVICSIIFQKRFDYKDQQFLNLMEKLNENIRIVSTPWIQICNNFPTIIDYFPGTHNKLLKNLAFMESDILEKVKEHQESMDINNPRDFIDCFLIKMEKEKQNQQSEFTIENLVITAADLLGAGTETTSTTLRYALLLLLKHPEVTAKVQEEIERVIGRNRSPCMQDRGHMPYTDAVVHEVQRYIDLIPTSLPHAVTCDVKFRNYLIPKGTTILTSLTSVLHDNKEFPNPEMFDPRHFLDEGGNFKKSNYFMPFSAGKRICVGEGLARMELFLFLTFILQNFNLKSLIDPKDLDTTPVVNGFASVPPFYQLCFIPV
The target of a further data set is CYP3A4 (Homo sapiens, UniProt P08684). Kind of data set: Inhibition of CYP3A4 in human microsomes at 10 uM in the presence of NADPH relative to control. Format: ADME, Microsome.
Sequence of CYP3A4 (P08684 whole entry): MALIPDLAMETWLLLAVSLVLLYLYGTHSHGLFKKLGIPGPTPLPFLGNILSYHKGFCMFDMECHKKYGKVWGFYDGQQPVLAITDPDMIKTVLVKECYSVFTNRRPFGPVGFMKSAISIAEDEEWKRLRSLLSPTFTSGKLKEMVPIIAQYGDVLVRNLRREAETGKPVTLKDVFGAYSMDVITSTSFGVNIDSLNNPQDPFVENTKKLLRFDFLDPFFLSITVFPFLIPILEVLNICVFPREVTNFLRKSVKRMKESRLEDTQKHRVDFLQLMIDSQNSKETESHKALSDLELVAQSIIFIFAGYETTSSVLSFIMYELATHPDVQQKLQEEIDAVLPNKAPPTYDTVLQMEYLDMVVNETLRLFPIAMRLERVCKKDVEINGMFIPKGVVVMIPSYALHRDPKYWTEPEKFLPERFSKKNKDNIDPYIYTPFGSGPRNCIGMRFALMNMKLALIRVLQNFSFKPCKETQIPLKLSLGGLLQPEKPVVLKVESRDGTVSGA
For data set [8], the system named is A-375. Nature of the data set: Antiproliferative activity against CM-Dil labelled human A-375 cells xenografted in Zebra fish AB at 45 pM administered from 3 days post fertilization and measured at day 5 post fertilization in the absence of irradiation by fluorescence based analysis. Format: functional, cell-based. As to conditions: time 48.0 hrs.
A short description of data set [9]: Photoactivation of the compound assessed as fold change in caging efficiency.

Activity calls are given as the source filed them.

What is called GI50 is the concentration giving 50% growth inhibition. One may read the inhibition as the change of the read-out against control, counted positive when it falls. The term half-life denotes the time needed for the level to fall by half in the phase considered.

Sequence of Dual specificity mitogen-activated protein kinase kinase 2 (Homo sapiens) (P36507 whole entry): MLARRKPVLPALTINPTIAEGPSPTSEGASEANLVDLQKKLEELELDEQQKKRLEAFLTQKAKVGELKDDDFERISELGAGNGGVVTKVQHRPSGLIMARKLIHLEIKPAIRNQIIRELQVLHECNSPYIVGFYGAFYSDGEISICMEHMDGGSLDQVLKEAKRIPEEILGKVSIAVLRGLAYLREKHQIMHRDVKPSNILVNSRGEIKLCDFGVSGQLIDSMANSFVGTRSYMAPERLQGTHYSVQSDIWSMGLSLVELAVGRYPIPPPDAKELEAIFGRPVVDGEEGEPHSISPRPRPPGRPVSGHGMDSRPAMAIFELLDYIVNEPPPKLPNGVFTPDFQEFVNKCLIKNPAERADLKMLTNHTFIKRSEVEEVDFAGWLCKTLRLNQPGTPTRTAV

For the compound `COc1cc(C(C)O/C(=N\OC[C@H](O)CO)c2ccc(F)c(F)c2Nc2ccc(I)cc2F)c([N+](=O)[O-])cc1OC` (stereo partly drawn), the concentration for 50% growth inhibition (GI50) stood at 6.29 nM in the data set on A-375 [1] and 27.8 nM in the data set with A549. For the same compound, the inhibition result (in data set [2]; in data set [3]; in data set [4]; in the data set on A-375 [6]) was “inactive” throughout. The inhibition entry in [5] is “Dose-Dependent Effect”. The half-life in [7] was determined as 24.2 min. Besides, the figures for the inhibition at 10 µM on CYP1A2, at CYP2C19 and on CYP3A4 were 0%, 44.6% and 92.4%, respectively. In the data set on A-375 [8], the result was inactive. Also, in data set [9], the “fold change (FC)” value was > 5085.
